Activity calls are given as the source filed them. The rule behind the calls is not given here.
Test system: not listed separately
Assay: replicating M. tuberculosis growth inhibition, dose response, counter-screen, dry powder, IC90 (AID 651618)
Details: M. tuberculosis replicating log phase, growth inhibition

| Compound | outcome |
| --- | --- |
| Clc1ccc(-c2nnc(SCc3ccccc3)o2)cc1 | inactive |
| Fc1ccccc1-c1nnc(SCc2ccccc2)o1 | inactive |
| c1ccc(CNc2nnc(-c3ccccc3)o2)cc1 | inactive |
| FC(F)(F)Oc1ccc(-c2nnc(SCc3ccccc3)o2)cc1 | inactive |
| FC(F)(F)c1ccc(CSc2nnc(-c3ccccc3)o2)cc1 | inactive |
| Cc1ccccc1CSc1nnc(-c2ccccc2)o1 | inactive |
| c1ccc(CSc2nnc(-c3ccccc3)s2)cc1 | inactive |
| Fc1cccc(-c2nnc(SCc3ccccc3)o2)c1 | inactive |
| CN(C)CCSc1nnc(-c2ccccc2)o1 | inactive |
| COc1ccc(-c2nnc(SCc3ccc(Cl)cc3)o2)cc1 | inactive |
| Fc1ccc(-c2nnc(SCc3ccccc3)o2)cc1 | inactive |
| CC1(O)CN(CCSc2nnc(-c3ccccc3)o2)C1 | inactive |
| Clc1ccc(CSc2nnc(-c3ccccc3)o2)cc1 | inactive |
| Cc1ccc(CSc2nnc(-c3ccccc3)o2)cc1 | inactive |
| c1ccc(CSc2nnc(Cc3ccccc3)o2)cc1 | inactive |
| c1ccc(-c2nnc(SCCN3CCCC3)o2)cc1 | inactive |
| N#Cc1ccc(-c2nnc(SCc3ccccc3)o2)cc1 | inactive |
| COc1ccc(-c2nnc(SCc3ccccc3)o2)cc1 | inactive |
| Clc1cccc(CSc2nnc(-c3ccccc3)o2)c1 | inactive |
| c1ccc(-c2ccc(CSc3nnc(-c4ccccc4)o3)cc2)cc1 | inactive |
| O=C(Cc1ccccc1)c1nnc(-c2ccccc2)o1 | inactive |
| c1ccc(-c2nnc(SC(c3ccccc3)c3ccccc3)o2)cc1 | inactive |
| FC(F)(F)c1ccccc1-c1nnc(SCc2ccccc2)o1 | inactive |

| Compound | outcome |
| --- | --- |
| Clc1cccc(-c2nnc(SCc3ccccc3)o2)c1 | inactive |
| COc1ccc(CSc2nnc(-c3ccccc3)o2)cc1 | inactive |
| CS(=O)(=O)c1ccccc1-c1nnc(SCc2ccccc2)o1 | inactive |
| CS(=O)(=O)c1ccc(CSc2nnc(-c3ccccc3)o2)cc1 | inactive |
| CS(=O)(=O)c1cccc(CSc2nnc(-c3ccccc3)o2)c1 | inactive |
| c1ccc(CSc2nnc(-c3ccncc3)o2)cc1 | inactive |
| FC(F)(F)c1ccccc1CSc1nnc(-c2ccccc2)o1 | inactive |
| c1ccc(CSc2nnc(-c3ccc(-c4ccccc4)cc3)o2)cc1 | inactive |
| FC(F)(F)Oc1cccc(CSc2nnc(-c3ccccc3)o2)c1 | inactive |
| N#Cc1cccc(-c2nnc(SCc3ccccc3)o2)c1 | inactive |
| O=C(Cc1ccccc1)C(C(=O)c1nnc(-c2ccccc2)o1)c1ccccc1 (stereo unspecified) | inactive |
| c1ccc(CSc2nnc(-c3ccco3)o2)cc1 | inactive |
| N#Cc1ccccc1CSc1nnc(-c2ccccc2)o1 | inactive |
| FC(F)(F)c1cccc(-c2nnc(SCc3ccccc3)o2)c1 | inactive |
| CS(=O)(=O)c1ccccc1CSc1nnc(-c2ccccc2)o1 | inactive |
| Cc1nnc(SCc2ccccc2)o1 | inactive |
| FC(F)(F)c1ccc(-c2nnc(SCc3ccccc3)o2)cc1 | inactive |
| Fc1ccc(CSc2nnc(-c3ccccc3)o2)cc1 | inactive |
| c1ccc(CSc2nnc(-c3cnco3)o2)cc1 | inactive |
| c1ccc(CSc2nnc(-c3cscn3)o2)cc1 | inactive |
| CS(=O)(=O)c1ccc(-c2nnc(SCc3ccccc3)o2)cc1 | inactive |
| Brc1ccc(CSc2nnc(-c3ccccc3)o2)cc1 | inactive |
| c1ccc(-c2nnc(SCCN3CCOCC3)o2)cc1 | inactive |

| Compound | outcome |
| --- | --- |
| c1ccc(CSc2nnc(-c3ccccn3)o2)cc1 | inactive |
| c1ccc(CCc2nnc(-c3ccccc3)o2)cc1 | inactive |
| FC(F)(F)Oc1ccc(CSc2nnc(-c3ccccc3)o2)cc1 | inactive |
| Cc1cccc(-c2nnc(SCc3ccccc3)o2)c1 | inactive |
| c1ccc(-c2nnc(SCc3ncco3)o2)cc1 | inactive |
| c1ccc(CNCCSc2nnc(-c3ccccc3)o2)cc1 | inactive |
| c1ccc(CSc2ncc(-c3ccccc3)o2)cc1 | inactive |
| FC1(F)CN(CCSc2nnc(-c3ccccc3)o2)C1 | inactive |
| Clc1ccccc1CSc1nnc(-c2ccccc2)o1 | inactive |
| N#Cc1ccc(CSc2nnc(-c3ccccc3)o2)cc1 | inactive |
| FC(F)(F)CNCCSc1nnc(-c2ccccc2)o1 | inactive |
| FC(F)(F)Oc1ccccc1CSc1nnc(-c2ccccc2)o1 | inactive |
| CS(=O)(=O)c1cccc(-c2nnc(SCc3ccccc3)o2)c1 | inactive |
| COc1ccccc1CSc1nnc(-c2ccccc2)o1 | inactive |
| CN(Cc1ccccc1)c1nnc(-c2ccccc2)o1 | inactive |
| c1ccc(-c2nnc(SCc3cscn3)o2)cc1 | inactive |
| c1ccc(CSc2nnc(-c3cc4ccccc4o3)o2)cc1 | inactive |
| N#Cc1cccc(CSc2nnc(-c3ccccc3)o2)c1 | inactive |
| Cc1ccccc1-c1nnc(SCc2ccccc2)o1 | inactive |
| FC(F)(F)Oc1ccccc1-c1nnc(SCc2ccccc2)o1 | inactive |
| Clc1ccccc1-c1nnc(SCc2ccccc2)o1 | inactive |

Test system: M. tuberculosis replicating log phase, growth inhibition
Assay: as above
Details: not given

| Compound | IC90 [µM] |
| --- | --- |
| c1ccc(CSc2nnc(C3CCCC3)o2)cc1 | 250 |
| Fc1ccccc1CSc1nnc(-c2ccccc2)o1 | 250 |
| c1ccc(CSc2nnc(-c3cccs3)o2)cc1 | 250 |
| FC(F)(F)Oc1cccc(-c2nnc(SCc3ccccc3)o2)c1 | 250 |
| c1ccc(CSc2nnc(-c3ccccc3)o2)cc1 | 125 |
| CC(C)c1nnc(SCc2ccccc2)o1 | 250 |
| Cc1ccc(-c2nnc(SCc3ccccc3)o2)cc1 | 125 |
| COCCOCCSc1nnc(-c2ccccc2)o1 | 250 |
| c1ccc(CSc2nnc(-c3cccnc3)o2)cc1 | 250 |
| c1ccc(-c2nnc(SCCN3CCN(c4ccccc4)CC3)o2)cc1 | 125 |
| Cc1cccc(CSc2nnc(-c3ccccc3)o2)c1 | 250 |
| c1ccc(CCc2nnc(SCc3ccccc3)o2)cc1 | 250 |
| Fc1cccc(CSc2nnc(-c3ccccc3)o2)c1 | 250 |
| FC1(F)CCN(CCSc2nnc(-c3ccccc3)o2)CC1 | 250 |
| FC(F)(F)c1cccc(CSc2nnc(-c3ccccc3)o2)c1 | 250 |
| c1ccc(CSc2nnc(C3CCCCC3)o2)cc1 | 250 |
| COc1cccc(CSc2nnc(-c3ccccc3)o2)c1 | 250 |
| COc1cccc(-c2nnc(SCc3ccccc3)o2)c1 | 250 |
| COc1ccccc1-c1nnc(SCc2ccccc2)o1 | 250 |

Reference: PubChem BioAssay AID651618 (Broad Institute, 2012)
